Results on one molecule are retold here after paper PMC7033278, “A Nonpeptide Oxytocin Receptor Agonist for a Durable Relief of Inflammatory Pain” (Scientific Reports, 2020).

Each structure is given as a SMILES string. Entries after “also recorded” stand apart in the source; their conditions may differ. Read-outs that look alike come from different tables or passages of the source.

Series [1] in a line: thermodynamic solubility in PBS pH 7.4. In kind it is physicochemical. As to conditions: PBS buffer, read-out: thermodynamic water solubility (S). As for the experimental part: Solubility of LIT-001 was determined from solution of about 1 mg of compound in 500 μl of PBS at pH 7.4. (Figs. 1, S1) The solution was stirred at room temperature for 24 h and centrifuged at 15.000 × g for 5 min. The supernatant was diluted with a mixture of acetonitrile and water and analyzed by HPLC with a diode detector (Gilson; Kinetex 2.6 μm C18 100 A 50 × 4.6 mm column). […] The lipophilicity (LogD7.4) of LIT-001 was measured using […] of a stock solution diluted with different concentrations of octanol and PBS to cover a LogP range from −2 to + 4.5 in a final volume of 1 ml. After stirring for 1 h at room temperature (≈ 20 °C), the samples were centrifuged and the different phases were analyzed by HPLC (Gilson; diode detector, Kinetex 2.6 μ C18 100 A 50 × 4.6 mm column).

Series [2] has as its target T1, ionotropic TRPV1 receptor (Homo sapiens, UniProt Q8NER1).
T1 construct: Eurofins (contract assay)
As to the kind of experiment: Eurofins functional profiling, TRPV1 agonist/antagonist. The series is classed as cell-based. Particulars: 5 μM. On the procedure:
(§1) In vitro profiling of LIT-001 was performed by Eurofins as described in the Eurofins SafetyScreen-Functional panel, 2018[31]. The hepatotoxicity of LIT-001 was studied with cryo-preserved mouse hepatocytes. After unfreezing (optiTHAW and optiINCUBATE media, Xenotech) and cell viability control, cells (2 × 10^6 cells/ml) were dispatched in 96 well microtiterplates. LIT-001 was added to reach a concentration 1 μM in the presence of 1 × 10^6 cells/mL in a volume of 100 μl/well. The incubation was stopped at 4, 20, 40, 80 and 120 min in adding 100 μl of acetonitrile at 0 °C. A positive control was treated in the same conditions. All samples were analyzed by UHPLC coupled to a mass spectrometer (Shimadzu LC-MS 8030).

In a further series the target is T2, dopamine transporter (Rattus norvegicus, UniProt P23977).
T2 construct: transporters from rat brain synaptosomes; tissue Eurofins (contract assay); host or cells: rat brain synaptosomes
T2 sequence (P23977 whole entry): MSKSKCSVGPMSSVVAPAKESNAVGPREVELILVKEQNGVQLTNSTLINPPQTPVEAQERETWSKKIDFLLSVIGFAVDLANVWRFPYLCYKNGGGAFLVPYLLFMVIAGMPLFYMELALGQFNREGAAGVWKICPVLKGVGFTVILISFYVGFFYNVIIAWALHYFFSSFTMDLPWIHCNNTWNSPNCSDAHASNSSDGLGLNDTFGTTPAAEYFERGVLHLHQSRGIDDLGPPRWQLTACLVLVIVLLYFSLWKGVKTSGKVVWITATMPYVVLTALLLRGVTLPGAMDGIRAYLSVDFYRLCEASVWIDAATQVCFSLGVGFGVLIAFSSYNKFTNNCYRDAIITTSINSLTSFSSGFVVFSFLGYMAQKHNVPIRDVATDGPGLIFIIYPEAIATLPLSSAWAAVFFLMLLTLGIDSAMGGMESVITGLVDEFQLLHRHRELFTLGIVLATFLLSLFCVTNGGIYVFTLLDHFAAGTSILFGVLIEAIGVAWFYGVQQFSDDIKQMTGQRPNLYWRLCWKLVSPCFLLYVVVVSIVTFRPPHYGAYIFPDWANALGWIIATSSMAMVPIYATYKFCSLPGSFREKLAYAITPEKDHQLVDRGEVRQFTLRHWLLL
Nature of the series: uptake inhibition, rat brain synaptosomes. The series is classed as biochemical. As to conditions: 5 μM. On the procedure: as §1

Series [3] has as its target T3, noradrenaline transporter (Rattus norvegicus, UniProt Q63380).
T3 construct: transporters from rat brain synaptosomes; tissue Eurofins (contract assay); host or cells: rat brain synaptosomes
As to the kind of experiment: uptake inhibition, rat brain synaptosomes. The series is classed as biochemical. Particulars: 5 μM. On the procedure: as §1

The next series deals with T4, serotonin transporter (Rattus norvegicus, UniProt P31652).
T4 construct: transporters from rat brain synaptosomes; tissue Eurofins (contract assay); host or cells: rat brain synaptosomes
T4 sequence (P31652 whole entry): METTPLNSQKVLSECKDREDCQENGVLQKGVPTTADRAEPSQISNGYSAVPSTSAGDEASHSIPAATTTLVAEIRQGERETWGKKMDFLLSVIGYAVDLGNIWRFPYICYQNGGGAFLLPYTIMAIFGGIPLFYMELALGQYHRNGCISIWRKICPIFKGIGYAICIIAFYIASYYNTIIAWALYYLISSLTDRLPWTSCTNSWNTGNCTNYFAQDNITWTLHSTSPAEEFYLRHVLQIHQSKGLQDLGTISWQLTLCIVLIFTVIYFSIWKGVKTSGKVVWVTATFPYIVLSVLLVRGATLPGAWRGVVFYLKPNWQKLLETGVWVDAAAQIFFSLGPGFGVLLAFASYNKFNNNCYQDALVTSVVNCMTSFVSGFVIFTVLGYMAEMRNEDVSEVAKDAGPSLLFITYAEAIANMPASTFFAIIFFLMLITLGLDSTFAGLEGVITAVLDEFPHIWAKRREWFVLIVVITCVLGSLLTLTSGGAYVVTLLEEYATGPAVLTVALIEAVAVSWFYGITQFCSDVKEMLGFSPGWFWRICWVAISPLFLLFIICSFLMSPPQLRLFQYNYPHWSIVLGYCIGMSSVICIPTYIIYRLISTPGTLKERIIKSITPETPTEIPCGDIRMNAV
As to the kind of experiment: uptake inhibition, rat brain synaptosomes. In kind it is biochemical. As to conditions: 5 μM. On the procedure: as §1

Series [4] in a line: distribution and clearance after i.p. injection, LC-MS/MS. As to conditions: ip, rat, 10 mg/kg i.p. The series is classed as in vivo. On the procedure: Brains from rat injected with 10 mg/kg (18.8 µmol/kg) i.p. of LIT-001 were homogenized with an Ultra Turrax instrument (Ika, Staufen, Germany) in 2 ml of H2O (Figs. 4, S4). The homogenates were then sonicated (3 times 10 s, 100 W) with a Vibra Cell apparatus (Sonics, Newtown, U.S.A.). Protein concentrations were determined using the Bradford method (Protein Assay, Bio-Rad, Marne-la-Coquette, France). 400 µl was mixed with 4 ml of ice cold acetonitrile (ACN) and let 30 min on ice. Samples were then centrifuged (20,000 × g, 30 min) at 4 °C. Supernatants were dried under vacuum and resuspended in 400 µl ACN 10%/H2O 89.9%/formic acid 0.1% (v/v/v) and a volume of 5 µl was injected on the LC-MS/MS. For CSF, plasma and urine, 200 µl of fluids were mixed with 1 ml of ice cold acetonitrile (ACN) and let 30 min on ice. Samples were then centrifuged (20,000 × g, 30 min) at 4 °C. Supernatants were dried under vacuum and suspended in 200 µl ACN 10%/H2O 89.9%/formic acid 0.1% (v/v/v) and a volume of 5 µl was injected on the LC-MS/MS.
Analyses were performed on a Dionex Ultimate 3000 HPLC system (Thermo Scientific, San Jose, USA) coupled with a triple quadrupole Endura mass spectrometer (Thermo Scientific). The system was controlled by Xcalibur v.2.0 software (Thermo Electron). Samples were loaded onto an Accucore C18 RP-MS column (ref 17126–151030; 150 × 1 mm 2.6 μm, Thermo Scientific) heated at 40 °C. The presence of LIT-001 was studied using the multiple reaction monitoring mode (MRM). Elution was performed at a flow rate of 150 µl/min by applying a linear gradient of mobile phases A/B. Mobile phase A corresponded to ACN 1%/H2O 98.9%/formic acid 0.1% (v/v/v), whereas mobile phase B was ACN 99.9%/formic acid 0.1% (v/v). The gradient used is detailed in Fig. S4. […] Desolvation (nitrogen) sheath gas was set to 27 Arb and Aux gas was set to 9 Arb. The ion transfer tube was heated at 312 °C. Q1 and Q2 resolutions were set at 0.7 FWHM, whereas collision gas (CID, argon) was set to 2 mTorr. Identification of the compounds was based on precursor ion, selective fragment ions and retention times obtained for LIT-001. Selection of the monitored transitions and optimization of collision energy and RF Lens parameters were manually determined (see Fig. S4 for details). Qualification and quantification were performed in MRM mode. Quantification was obtained using Quan Browser software (Thermo Scientific). For tissues and fluids, LIT-001 was quantified using calibration curves of external standards of LIT-001 (125 fmol to 100 pmol/injection; Fig. S4) added to urine, plasma or brain extracts of naive rat and submitted to the same procedure described for respective fluids and tissue recovery. The amounts of LIT-001 measured in samples fit within the standard curve limits, with typical analytical ranges (the range of amounts that can be accurately quantified) from […].

Series [5] concerns V2 vasopressin receptor (V2R). Also on record: method as in PMID 30199637. As to conditions: cited from earlier work.
Where [6] appears, read: CSF, read-out: concentration in CSF.
The mark [7] stands for this setting: brain, read-out: concentration in brain.
Where [8] appears, read: plasma, read-out: concentration in plasma.
The mark [9] stands for this setting: urine, read-out: concentration in urine.

T1 sequence (Q8NER1 whole entry): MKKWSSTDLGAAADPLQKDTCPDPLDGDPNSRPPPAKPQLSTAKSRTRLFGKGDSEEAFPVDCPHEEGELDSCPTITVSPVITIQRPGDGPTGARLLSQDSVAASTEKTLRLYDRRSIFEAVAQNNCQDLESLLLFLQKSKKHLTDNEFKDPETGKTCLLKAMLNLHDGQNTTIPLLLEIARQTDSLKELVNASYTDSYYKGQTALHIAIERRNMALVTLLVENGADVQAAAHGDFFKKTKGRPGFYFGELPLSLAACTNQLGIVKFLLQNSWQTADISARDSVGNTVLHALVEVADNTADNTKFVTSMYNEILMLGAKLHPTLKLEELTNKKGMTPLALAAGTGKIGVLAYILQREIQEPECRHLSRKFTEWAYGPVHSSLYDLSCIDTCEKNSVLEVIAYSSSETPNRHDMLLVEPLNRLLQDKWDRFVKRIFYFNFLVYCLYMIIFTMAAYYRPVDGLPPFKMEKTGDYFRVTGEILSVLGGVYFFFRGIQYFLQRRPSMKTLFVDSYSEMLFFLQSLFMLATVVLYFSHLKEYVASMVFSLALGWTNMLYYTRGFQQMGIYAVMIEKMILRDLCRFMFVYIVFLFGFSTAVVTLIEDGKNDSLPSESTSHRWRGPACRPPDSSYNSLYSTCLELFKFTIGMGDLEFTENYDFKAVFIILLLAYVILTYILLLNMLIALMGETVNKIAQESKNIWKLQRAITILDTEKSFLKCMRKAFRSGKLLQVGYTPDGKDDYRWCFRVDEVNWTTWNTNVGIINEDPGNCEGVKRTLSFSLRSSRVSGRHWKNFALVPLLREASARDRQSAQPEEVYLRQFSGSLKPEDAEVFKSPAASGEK
T3 sequence (Q63380 1-617): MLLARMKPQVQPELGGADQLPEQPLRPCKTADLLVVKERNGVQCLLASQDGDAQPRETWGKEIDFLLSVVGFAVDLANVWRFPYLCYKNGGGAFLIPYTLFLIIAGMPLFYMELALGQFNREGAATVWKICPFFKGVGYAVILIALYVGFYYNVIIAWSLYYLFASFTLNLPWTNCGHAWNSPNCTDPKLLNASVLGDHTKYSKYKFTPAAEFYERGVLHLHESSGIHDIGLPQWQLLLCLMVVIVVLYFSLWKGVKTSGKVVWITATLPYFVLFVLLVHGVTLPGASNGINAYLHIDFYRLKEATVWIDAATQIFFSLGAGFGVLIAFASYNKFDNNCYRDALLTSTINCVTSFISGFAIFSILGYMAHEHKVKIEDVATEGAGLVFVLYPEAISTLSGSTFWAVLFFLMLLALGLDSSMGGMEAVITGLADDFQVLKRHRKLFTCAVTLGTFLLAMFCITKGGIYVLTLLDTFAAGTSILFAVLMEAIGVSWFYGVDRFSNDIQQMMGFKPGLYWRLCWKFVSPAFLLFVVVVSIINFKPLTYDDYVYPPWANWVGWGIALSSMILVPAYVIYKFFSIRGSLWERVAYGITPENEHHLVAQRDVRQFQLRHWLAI

For `Cc1cc(C(=O)N2Cc3cnn(C)c3Nc3ccccc32)ccc1CNC(=O)N1CCC[C@H]1C(=S)N(C)C` [LIT-001], the thermodynamic solubility at 24 h in series [1] (pH 7.4, aqueous buffer, thermodynamic from solid) turned out to be 530 ± 30 µM; in series [1] (pH 7.4), 340 µg/mL. Besides, the “agonist or antagonist activity at TRPV1 receptor” value in series [2] is recorded as “No significant agonist or antagonist; also recorded: neither LIT-001 nor the OT antagonist L-368,699 displayed any significant agonist or antagonist activity”. In addition, the dopamine uptake blockade result at dopamine transporter is recorded as “no significant uptake blockade”. In series [3], the noradrenaline uptake blockade entry is given as “no significant uptake blockade”. Moreover, the serotonin uptake blockade entry at serotonin transporter is reported as “no significant uptake blockade”. The concentration at 60 min in series [4] (setting [6]) was found to be 7.4 ± 4.4 nM; in series [4] (setting [7]), 1.6 ± 0.8 nM; in series [4] (setting [8]), 626 ± 112 nM; in series [4] (setting [9]), 52500 ± 14200 nM. Besides, the concentration at 300 min stood at 1.5 ± 1.1 nM in series [4] (setting [6]), 0.6 ± 0.4 nM in series [4] (setting [7]), 95.2 ± 36.5 nM in series [4] (setting [8]) and 189000 ± 8480 nM in series [4] (setting [9]). In addition, the concentration at 30 min in series [4] (plasma, 30 min (highest)) turned out to be 650 ± 200 nM. Besides, the “affinity for V2R” value in series [5] is recorded as “low micromolar affinity”.
